Assay [1] deals with DNA polymerase beta (Rattus norvegicus) (UniProt P06766). In words: Inhibition of rat DNA polymerase beta assessed as incorporation of [3H]dTTP.
Assay [2] is filed under the species Bos taurus. Put plainly: Inhibition of calf DNA polymerase alpha assessed as incorporation of [3H]dTTP.

Molecules are shown by their SMILES. In brackets after ≈: the same amount, converted by molar mass.

Take `CC(C)=CCC[C@@H](C)[C@H]1CC[C@@]2(C)C3=C(CC[C@]12C)[C@]1(C)[C@@H](CC3=O)[C@@](C)(C(=O)O)[C@H](O)C[C@H]1O`: the MIC in assay [1] worked out at 95 µM (≈ 46.2 µg/mL); in assay [2] it was 35 µM (≈ 17 µg/mL).
For `CO[C@@H]1C[C@]2(C)[C@@H]([C@H](C)CCC=C(C)C)CC[C@@]2(C)C2=C1[C@]1(C)[C@@H](CC2=O)[C@@](C)(C(=O)O)[C@@H](O)C[C@H]1O` the same measures were 130 µM (≈ 67.2 µg/mL) and 75 µM (≈ 38.8 µg/mL).
As for `CC(C)=CCC[C@@H](C)[C@H]1CC[C@@]2(C)C3=C([C@H](O)C[C@]12C)[C@]1(C)[C@@H](CC3=O)[C@@](C)(C(=O)O)[C@@H](O)C[C@H]1O`, the results for the MIC in assay [1] and in assay [2] were 125 µM (≈ 62.8 µg/mL) and 75 µM (≈ 37.7 µg/mL), respectively.
With `CC(C)=CCC[C@@H](C)[C@H]1CC[C@@]2(C)C3=C(CC[C@]12C)[C@]1(C)[C@@H](CC3=O)[C@@](C)(C(=O)O)[C@@H](O)C[C@H]1O`, the MIC in assay [1] came to 90 µM (≈ 43.8 µg/mL); in assay [2], 30 µM (≈ 14.6 µg/mL).

(Values after ChEMBL document CHEMBL1159205, “Fomitellic acids, triterpenoid inhibitors of eukaryotic DNA polymerases from a basidiomycete, Fomitella fraxinea” (J Nat Prod, 1998).)
